Experimental data from paper PMC12027554, “Inhibition of ABCG2 by SCO-101 Enhances Chemotherapy Efficacy in Cancer” (International Journal of Molecular Sciences, 2025).

Assays:
[1] = tested on: HT29PAR cells; assay: Cellular dye efflux assay (Hoechst 33342), parental cells; format: cell-based, human; conditions: SCO-101 20 µM, Ko-143 1 µM
Description: Twenty-four hours before the experiments, cells were seeded into 96-well Nunclon^TM plates at a density of 6000 (HT29), 7000 (PANC-1) or 8000 (LoVo) cells/well. The following day, cells were treated in triplicate with the relevant drugs at the indicated concentrations for 1 h. Next, 5 μg/mL Hoechst 33342 was added to the wells, and plates incubated at 37 °C for 30 min^−1 h. Cells were washed with cold PBS, treatments re-added and plates re-incubated at 37 °C for 30 min to 1 h. Plates were analyzed using a Celigo® (Nexcelom Bioscience, Lawrence, MA, USA) imaging cytometer. Data are expressed as percentages of fluorescence intensity, calculated through the following formula: % fluorescence intensity=Mean fluorescence intensity of sample/Mean fluorescence intensity of parental control×100
Fluorescent images were captured with an Olympus® IX71/TH4-200 microscope equipped with an Olympus® DP72 camera (Shinjuku, Tokyo, Japan), and cells were seeded at a 1.5 × 10^5 cells/well density and treated as described above.

[2] = biological target: T1, ABCG2 (Homo sapiens, UniProt Q9UNQ0); assay: Bidirectional transport of estrone-3-sulfate across Caco-2 cell monolayers; format: cell-based; conditions: Caco-2 monolayers, 50 µM SCO-101
T1 sequence (Q9UNQ0 1-655): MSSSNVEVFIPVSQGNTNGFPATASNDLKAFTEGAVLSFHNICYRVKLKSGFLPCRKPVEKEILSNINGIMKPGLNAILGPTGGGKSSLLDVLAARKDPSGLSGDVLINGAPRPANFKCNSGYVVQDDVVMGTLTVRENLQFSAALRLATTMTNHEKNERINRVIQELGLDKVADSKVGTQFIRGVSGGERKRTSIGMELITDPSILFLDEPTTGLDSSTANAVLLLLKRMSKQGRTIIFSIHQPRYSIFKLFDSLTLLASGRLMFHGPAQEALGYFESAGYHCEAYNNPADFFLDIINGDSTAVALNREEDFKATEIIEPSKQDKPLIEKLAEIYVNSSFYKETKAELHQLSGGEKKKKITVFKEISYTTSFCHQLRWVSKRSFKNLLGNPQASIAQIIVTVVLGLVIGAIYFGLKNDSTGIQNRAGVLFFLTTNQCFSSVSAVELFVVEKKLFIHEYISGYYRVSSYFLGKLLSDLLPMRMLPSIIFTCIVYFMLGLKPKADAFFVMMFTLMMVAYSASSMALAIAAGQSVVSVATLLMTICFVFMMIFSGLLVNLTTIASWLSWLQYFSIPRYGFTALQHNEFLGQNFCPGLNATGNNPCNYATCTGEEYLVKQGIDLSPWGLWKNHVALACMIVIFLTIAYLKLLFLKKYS
Description: Bidirectional transport experiments (basolateral-to-apical and apical-to-basolateral) with the ABCG2 substrate estrone-3-sulfate and the MDR1/ABCB1 substrate digoxin were performed in Caco-2 cell monolayers as previously described.

[3] = biological target: T1, ABCG2; assay: Efflux transporter inhibition, vesicular uptake into inside-out membrane vesicles (ABCG2); format: biochemical; design: purchased SOLVO biotechnology, Budapest, Hungary
Description: Efflux transporter inhibition was evaluated by measuring vesicular uptake into inside-out membrane vesicles (SOLVO biotechnology, Budapest, Hungary) expressing a single human ABC transporter (0.67 mg/mL ABCB1; 0.67 mg/mL ABCC2; 0.33 mg/mL ABCG2 membrane protein) of a probe substrate (1 μM N-methyl-quinidine for ABCB1; 100 μM 5(6)-carboxy-2′,7′-dichlorofluorescein for ABCC2; 1 μM Eestrone-3-sulfate for ABCG2) in the presence of SCO-101 with and without ATP (4 mM) in 96-well plate format. Control solvent and control inhibitors (4–60 μM verapamil for […]; 1–15 μM sulfasalazine for ABCG2; 5.5–150 μM benzbromarone for ABCC2) were incubated in parallel. Vesicular uptake was conducted at 37 °C in incubation buffer (10 mM Tris-HCl, pH 7.4, 10 mM MgCl2, 250 mM sucrose) and terminated after 1 min (ABCB1 and ABCG2) or 5 min (ABCC2) by adding ice-cold washing buffer (10 mM Tris-HCl, pH 7.4, 100 mM NaCl, 250 mM sucrose). […] Probe quantification was conducted using LC-MS/MS peak areas (solvent control with ATP − AMP = 100%). […] The remaining transporter activity % was calculated according to the formula below, and fitting was performed using GraphPad Prism: A%=AATP,sample−AAMP,sample/AATP,solvent−AAMP,solvent

[4] = tested on: HT29SN-38 cells; assay: 3H-SN-38 uptake in cell monolayers; format: cell-based, human; conditions: HT29SN-38 monolayers
Description: Cells were seeded at a density of 1.8 × 10^4 cells/well in 96-well plates and sub-cultured for 48 h. Drugs were dissolved in HBSS transport buffer (HBSS, 0.05% BSA, 10 mM HEPES, pH 7.4) at different concentrations. All treatments were investigated in technical triplicates. On the day of the experiments, the culture medium was exchanged with 100 μL transport buffer and cells incubated for 15 min at 37 °C. Next, the blank transport buffer was exchanged with 50 μL transport buffer containing the different compounds (2X of final concentrations) and incubated for an additional 15 min at 37 °C. The uptake experiment was started by adding 50 μL of 2 μCi/mL ^3H-SN38 and stopped after 15 min of incubation at 37 °C by removing the transport buffer from all wells. Cell monolayers were washed twice by adding/removing ice-cold transport buffer and lysed for 15 min at RT in 100 μL 0.1% TritonX-100. Cell lysates were transferred to scintillation vials containing 2 mL of scintillation fluid (Ultima Gold, PerkinElmer). Each well was washed with 100 μL purified water (milliQ), which was also transferred to respective scintillation vials. The radioactivity in each scintillation vial was measured by means of scintillation counting (Tri-Carb 2910 TR, PerkinElmer, Waltham, MA, USA).

In the case of `O=C(Nc1cc(C(F)(F)F)cc(C(F)(F)F)c1)Nc1ccc(Br)cc1-c1nnn[nH]1` [SCO-101, N-[4-Bromo-2-(1H-1,2,3,4-tetrazol-5-yl)phenyl]-N′-[3,5-bis(trifluoromethyl)phenyl]urea], the H33342 dye accumulation [1] is reported as “No change”, the “basolateral-to-apical transport of the ABCG2 substrate estrone-3-sulfate” value [2] is reported as “completely blocked” and the IC50 ([3]; ABCG2 inside-out vesicles, 1 μM estrone-3-sulfate, SCO-101 0.001–300 µM, read-out: IC50, ATP-dependent vesicular uptake of probe substrate (remaining ABCG2 activity)) is reported as 0.16 µM. The “IC50 for MDR1/ABCB1 and MRP2/ABCC2 relative to ABCG2” value ([3]; selectivity for ABCG2) was > 100 fold, the “cellular accumulation of 3H-SN-38” value ([4]; SCO-101 25 µM, Ko-143 0.5 µM, ZSQ 0.5 µM, vs control (HBSS)) was “greater than those of Ko-143-treated cells” and the EC50 ([4]; Homo sapiens, read-out: EC50, 3H-SN-38 uptake (regarded as IC50 of ABCG2 inhibition)) was 6.4 µM.
